# Where a name gives a salt, the structure may show the parent alone.
# Biological target: AMPK
# Assay: AMPK activation, enzyme-linked immunosorbent assay
# Format: biochemical
# Settings: Table 2, AMPK activation, ELISA
# Description: Compounds 1-50 of Table 1 were assayed for their ability to activate AMPK using an enzyme-linked immunosorbent assay.
# Compounds 51-60 of Table 1 were assayed for their ability to activate AMPK using an enzyme-linked immunosorbent assay.
# Compounds 61-131 of Table 1 were assayed for their ability to activate AMPK using an enzyme-linked immunosorbent assay.
# Compounds 137-141 and 143-155 of Table 1 were assayed for their ability to activate AMPK using an enzyme-linked immunosorbent assay.
# Compounds 156-160 of Table 1 were assayed for their ability to activate AMPK using an enzyme-linked immunosorbent assay.
row,SMILES,EC50 [nM]
1,"O=C(NC1CCN(Cc2ccncc2)CC1)c1cncc(OC2CCN(c3ccc(C(F)(F)F)cc3)CC2)c1 [Compound 14, N-(1-(pyridin-4-ylmethyl)piperidin-4-yl)-5-(1-(4-(trifluoromethyl)phenyl)piperidin-4-yloxy)nicotinamide]",< 100
2,"N#Cc1ccc(CN2CC(NC(=O)c3ccc(OC4CCN(c5ccc(C(F)(F)F)cc5)CC4)cn3)C2)cc1 [Compound 41, N-(1-(4-cyanobenzyl)azetidin-3-yl)-5-(1-(4-(trifluoromethyl)phenyl)piperidin-4-yloxy)picolinamide]",100 to 500
3,"O=C(NC1CCN(Cc2ccc(F)cc2)CC1)c1cc(OC2CCN(c3ccc(C(F)(F)F)cc3)CC2)ccn1 [Compound 29, N-(1-(4-fluorobenzyl)piperidin-4-yl)-4-(1-(4-(trifluoromethyl)phenyl)piperidin-4-yloxy)picolinamide]",100 to 500
4,"N#Cc1ccc(N2CCC(Oc3ccc(C(=O)NC4CCN(Cc5ccncc5)CC4)nc3)CC2)cc1 [Compound 1, 5-(1-(4-cyanophenyl)piperidin-4-yloxy)-N-(1-(pyridin-4-ylmethyl)piperidin-4-yl)picolinamide]",100 to 500
5,"CC(C)(C)OC(=O)NCCCNC(=O)c1ccc(OC2CCN(c3ccc(C(F)(F)F)cc3)CC2)cn1 [Compound 49, tert-butyl 3-(5-(1-(4-(trifluoromethyl)phenyl)piperidin-4-yloxy)picolinamido) propylcarbamate]",< 100

# Same assay, conditions: Table 3, AMPK activation, ELISA
row,SMILES,EC50 [nM]
1,"O=S(=O)(NC1CCN(Cc2ccc(C(F)(F)F)cc2)CC1)c1ccc(OC2CCN(c3ccc(C(F)(F)F)cc3)CC2)nc1 [Compound 58, N-(1-(4-(trifluoromethyl)benzyl)piperidin-4-yl)-6-(1-(4-(trifluoromethyl)phenyl)piperidin-4-yloxy)pyridine-3-sulfonamide]",< 100
2,"N#Cc1ccc(CN2CCC(Oc3ccc(S(=O)(=O)NC4CCN(Cc5ccncc5)CC4)cn3)CC2)cc1 [Compound 53, 6-(1-(4-cyanobenzyl)piperidin-4-yloxy)-N-(1-(pyridin-4-ylmethyl)piperidin-4-yl)pyridine-3-sulfonamide]",100 to 500

# Same assay, conditions: Table 4, AMPK activation, ELISA
row,SMILES,EC50 [nM]
1,"O=C(NC1CCN(Cc2ccccn2)CC1)c1cc2ccc(OC3CCN(c4ccc(C(F)(F)F)cc4)CC3)cc2o1 [Compound 93, N-(1-(pyridin-2-ylmethyl)piperidin-4-yl)-6-(1-(4-(trifluoromethyl)phenyl)piperidin-4-yloxy)benzofuran-2-carboxamide]",100 to 500
2,"Cc1c(C(=O)NC2CCN(Cc3cccc(C#N)c3)CC2)oc2cc(OC3CCN(c4ccc(C(F)(F)F)cc4)CC3)ccc12 [Compound 66, N-(1-(3-cyanobenzyl)piperidin-4-yl)-3-methyl-6-(1-(4-(trifluoromethyl)phenyl)piperidin-4-yloxy)benzofuran-2-carboxamide]",< 100
3,"O=C(NC1CCN(Cc2ccccc2)CC1)c1cc2cc(OC3CCN(Cc4ccc(F)c(F)c4)CC3)ccc2o1 [Compound 74, N-(1-benzylpiperidin-4-yl)-5-(1-(3,4-difluorobenzyl)piperidin-4-yloxy)benzofuran-2-carboxamide]",100 to 500
4,"O=C(NC1CCN(Cc2ccc(F)cc2)CC1)c1cc2ccc(OC3CCN(c4ccc(OC(F)(F)F)cc4)CC3)cc2o1 [Compound 94, N-(1-(4-fluorobenzyl)piperidin-4-yl)-6-(1-(4-(trifluoromethoxy)phenyl)piperidin-4-yloxy)benzofuran-2-carboxamide]",< 100
5,"O=C(NC1CCN(Cc2cccnc2)CC1)c1cc2ccc(OC3CCN(c4ccc(OC(F)(F)F)cc4)CC3)cc2o1 [Compound 95, N-(1-(pyridin-3-ylmethyl)piperidin-4-yl)-6-(1-(4-(trifluoromethoxy)phenyl)piperidin-4-yloxy)benzofuran-2-carboxamide]",< 100
6,"O=C(N[C@@H]1CCN(Cc2ccncc2)C1)c1cc2cc(OC3CCN(c4ccc(C(F)(F)F)cc4)CC3)ccc2o1 [Compound 122, (R)-N-(1-(pyridin-4-ylmethyl)pyrrolidin-3-yl)-5-(1-(4-(trifluoromethyl)phenyl)piperidin-4-yloxy)benzofuran-2-carboxamide]",100 to 500
7,"Cc1c(C(=O)NC2CCN(Cc3ccc(F)cc3)CC2)oc2cc(OC3CCN(c4ccc(C(F)(F)F)cc4)CC3)ccc12 [Compound 63, N-(1-(4-fluorobenzyl)piperidin-4-yl)-3-methyl-6-(1-(4-(trifluoromethyl)phenyl)piperidin-4-yloxy)benzofuran-2-carboxamide]",< 100
8,"O=C(NC1CCN(S(=O)(=O)c2cccnc2)CC1)c1cc2ccc(OC3CCN(c4ccc(C(F)(F)F)cc4)CC3)cc2o1 [Compound 106, N-(1-(pyridin-3-ylsulfonyl)piperidin-4-yl)-6-(1-(4-(trifluoromethyl)phenyl)piperidin-4-yloxy)benzofuran-2-carboxamide]",100 to 500
9,"N#Cc1ccc(CN2CCC(Oc3ccc4oc(C(=O)NC5CCN(Cc6ccncc6)CC5)cc4c3)CC2)cc1 [Compound 79, 5-(1-(4-cyanobenzyl)piperidin-4-yloxy)-N-(1-(pyridin-4-ylmethyl)piperidin-4-yl)benzofuran-2-carboxamide]",100 to 500
10,"O=C(N[C@H]1CCN(Cc2cccnc2)C1)c1cc2cc(OC3CCN(Cc4ccc(Cl)cc4)CC3)ccc2o1 [Compound 130, (S)-5-(1-(4-chlorobenzyl)piperidin-4-yloxy)-N-(1-(pyridin-3-ylmethyl)pyrrolidin-3-yl)benzofuran-2-carboxamide]",1000 to 10000
11,"O=C(N[C@@H]1CCN(S(=O)(=O)c2cccnc2)C1)c1cc2cc(OC3CCN(c4ccc(C(F)(F)F)cc4)CC3)ccc2o1 [Compound 126, (R)-N-(1-(pyridin-3-ylsulfonyl)pyrrolidin-3-yl)-5-(1-(4-(trifluoromethyl)phenyl)piperidin-4-yloxy)benzofuran-2-carboxamide]",1000 to 10000
12,"O=C(NC1CCNCC1)c1cc2ccc(OC3CCN(c4ccc(C(F)(F)F)cc4)CC3)cc2o1 [Compound 84, N-(piperidin-4-yl)-6-(1-(4-(trifluoromethyl)phenyl)piperidin-4-yloxy)benzofuran-2-carboxamide hydrochloride]",10000 to 50000
13,"O=C(NC1CCN(Cc2ccncc2)CC1)c1cc2ccc(OC3CCN(c4ccc(C(F)(F)F)cc4)CC3)cc2o1 [Compound 87, N-(1-(pyridin-4-ylmethyl)piperidin-4-yl)-6-(1-(4-(trifluoromethyl)phenyl)piperidin-4-yloxy)benzofuran-2-carboxamide]",< 100
14,"O=C(NC1CCN(C(=O)c2ccncc2)CC1)c1cc2cc(OC3CCN(c4ccc(C(F)(F)F)cc4)CC3)ccc2o1 [Compound 115, N-(1-isonicotinoylpiperidin-4-yl)-5-(1-(4-(trifluoromethyl)phenyl)piperidin-4-yloxy)benzofuran-2-carboxamide]",< 100
15,"CC(C)(C)OC(=O)N1CC[C@H](NC(=O)c2cc3cc(OC4CCN(Cc5ccc(Cl)cc5)CC4)ccc3o2)C1 [Compound 127, (S)-tert-butyl 3-(5-(1-(4-chlorobenzyl)piperidin-4-yloxy)benzofuran-2-carboxamido)pyrrolidine-1-carboxylate]",1000 to 10000
16,"O=C(NC1CCN(Cc2ccccc2)CC1)c1cc2cc(OC3CCN(c4ccc(OC(F)(F)F)cc4)CC3)ccc2o1 [Compound 80, N-(1-benzylpiperidin-4-yl)-5-(1-(4-(trifluoromethoxy)phenyl)piperidin-4-yloxy)benzofuran-2-carboxamide trifluoroacetate salt]",< 100
17,"N#Cc1ccccc1CN1CCC(NC(=O)c2cc3ccc(OC4CCN(c5ccc(C(F)(F)F)cc5)CC4)cc3o2)CC1 [Compound 98, N-(1-(2-cyanobenzyl)piperidin-4-yl)-6-(1-(4-(trifluoromethyl)phenyl)piperidin-4-yloxy)benzofuran-2-carboxamide]",< 100
18,"O=C(NC1CCN(Cc2ccncc2)CC1)c1cc2cc(OC3CCN(c4ccc(C(F)(F)F)cc4)CC3)ccc2o1 [Compound 76, N-(1-(pyridin-4-ylmethyl)piperidin-4-yl)-5-(1-(4-(trifluoromethyl)phenyl)piperidin-4-yloxy)benzofuran-2-carboxamide]",100 to 500

# Same assay, conditions: Table 5, AMPK activation, ELISA
row,SMILES,EC50 [nM]
1,"N#Cc1ccccc1CN1CCC(NC(=O)c2cc3ccc(OC4CCN(c5ccc(C(F)(F)F)cc5)CC4)cc3s2)CC1 [Compound 146, N-(1-(2-cyanobenzyl)piperidin-4-yl)-6-(1-(4-(trifluoromethyl)phenyl)piperidin-4-yloxy)benzo[b]thiophene-2-carboxamide]",100 to 500
2,"O=C(NC1CCN(Cc2ccncc2)CC1)c1cc2cc(OC3CCN(c4ccc(C(F)(F)F)cc4)CC3)ccc2s1 [Compound 138, N-(1-(pyridin-4-ylmethyl)piperidin-4-yl)-5-(1-(4-(trifluoromethyl)phenyl)piperidin-4-yloxy)benzo[b]thiophene-2-carboxamide]",< 100
3,"O=C(NC1CCN(Cc2ccncc2)CC1)c1sc2cc(OC3CCN(c4ccc(C(F)(F)F)cc4)CC3)ccc2c1Cl [Compound 151, 3-chloro-N-(1-(pyridin-4-ylmethyl)piperidin-4-yl)-6-(1-(4-(trifluoromethyl)phenyl)piperidin-4-yloxy)benzo[b]thiophene-2-carboxamide]",< 100
4,"O=C(NC1CCN(Cc2ccccn2)CC1)c1sc2cc(OC3CCN(c4ccc(C(F)(F)F)cc4)CC3)ccc2c1Cl [Compound 153, 3-chloro-N-(1-(pyridin-2-ylmethyl)piperidin-4-yl)-6-(1-(4-(trifluoromethyl)phenyl)piperidin-4-yloxy)benzo[b]thiophene-2-carboxamide]",100 to 500

# Same assay, conditions: Table 6, AMPK activation, ELISA
row,SMILES,EC50 [nM]
1,"Fc1ccc(CN2CCC(NC3CCc4cc(OC5CCN(c6ccc(C(F)(F)F)cc6)CC5)ccc43)CC2)cc1 (stereo not drawn) [Compound 159, 1-(4-fluorobenzyl)-N-(5-(1-(4-(trifluoromethyl)phenyl)piperidin-4-yloxy)-2,3-dihydro-1H-inden-1-yl)piperidin-4-amine]",500 to 1000

# — patent US9174964B2, “AMPK-activating piperidinyloxy-substituted 2,3-dihydro-1H-indene-1-amine compounds and pharmaceutical compositions including the same” (Rigel Pharmaceuticals, Inc., priority 2007, dated 2015)
